Like-named read-outs stand apart in the source and are kept apart here. * marks the point of attachment. Exatecan = CC[C@@]1(O)C(=O)OCc2c1cc1n(c2=O)Cc2c-1nc1cc(F)c(C)c3c1c2[C@@H](N*)CC3
Columns and labels:
[1] = test system: Meth A tumor-bearing mice; assay: Antitumor activity, Meth A tumor-bearing mice, i.v. every 4 days 4 times; assay type: in vivo, mouse; details: for Inhibition rate: calculated based on the drug compound, day 21
Experimental: (§1) Meth A tumor-bearing mice were prepared (7 mice per group) by subcutaneously transplanting 1×10^6 mouse fibrosarcoma Meth A cells into the right inguinal regions of BALB/c male mice (7-week old). On day 7, the drug complex of Example 9 dissolved in distilled water for injection was injected in the tail vein of the Meth A tumor-bearing mice every 4 days 4 times. On day 21 after the transplantation, tumor masses were excised and weighed to calculate the inhibition rate of tumor growth according to the following equation: inhibition rate of tumor growth (%)=[1-(average tumor weight of the group administered with the test sample/average tumor weight of control group)]×100.

[2] = test system: Meth A tumor-bearing mice; assay: Antitumor activity, Meth A tumor-bearing mice, single administration on day 7; assay type: in vivo, mouse
Experimental: as §1
Meth A tumor-bearing mice (6 mice per group) were prepared according to a similar manner to that of Example 11 and the antitumor activity was compared to that obtained by single administration of the drug complexes of Examples 8 and 9 once on day 7.
(§2) Meth A tumor-bearing mice (6 mice per group) were prepared according to a similar manner to that of Example 11 and the antitumor activity of the drug complex of Example 15 was examined by single administration in a similar manner to that of Example 12.
as §2, with “1,” for “11”, “41” for “15”, “in the cases of” for “by”, “12, and its antitumor activity was compared to that of the drug compound, per se.” for “12.”
Meth A tumor-bearing mice (6 mice per group) were prepared according to a similar manner to that of Example 11, and the antitumor activity was examined according to a similar method to that in Example 12 by single administration of the drug complexes of Examples 29, 43, and 44, respectively.

SC-6 human gastric tumor = assay: Antitumor activity, SC-6 tumor-bearing nude mice, single i.v. administration; assay type: in vivo, human tumor in nude mice; details: for Inhibition rate / Numbers of died mice/mice used: calculated based on the drug compound
Experimental: (§3) SC-6 tumor-bearing nude mice (5 mice per group) were prepared by subcutaneously transplanting a piece of SC-6 human gastric tumor block into the right inguinal regions of nude mice (13AI,B/c-nu/nu, male). On day 27 after the transplantation, the drug complex of Example 15 dissolved in distilled water for injection was given as a single intravenous administration and its antitumor activity was compared to that of the drug compound, per se.

Human lung cancer QG-90 = assay: Antitumor activity, human lung cancer QG-90-bearing nude mice, single i.v. administration; assay type: in vivo, human tumor in nude mice; details: for Inhibition rate / Numbers of died mice/mice used: calculated based on the drug compound
Experimental: as §3
Human lung cancer QG-90-bearing nude mice (5 mice per group) were prepared according to a similar manner to that of Example 53. On day 16 after the transplantaion, the drug complex of Example 15 dissolved in distilled water for injection was given as a single intravenous administration and its antitumor activity was compared to that of the drug compound, per se.

[3] = test system: Meth A tumor-bearing mice; assay: Pharmacokinetics of the drug complex in Meth A tumor-bearing mice; assay type: in vivo, mouse; details: 10 mg/kg single, calculated as the drug compound
Experimental: Meth A tumor-bearing mice were prepared according to a similar manner to that of Example 11, the drug complex of Example 15 was given as single administration in a similar manner to that of Example 12 (10 mg/kg: calculated as the drug compound), and the change of the drug complex concentration in various tissues was determined.

[4] = cited from earlier work
[5] = Example 11, every 4 days 4 times
[6] = single administration, compared to the drug compound, per se
[7] = single i.v., compared to the drug compound, per se

“Carboxymethyldextran Polyalcohol-Gly-Gly-Phe-Gly-NH--A' (A--NH2 =DX-8951) [Example 9] ({carboxymethyldextran polyalcohol}-GGFG-Exatecan; also: N-terminus linked to carboxymethyldextran polyalcohol, C-terminus amide-linked to drug residue A' (DX-8951))” gave an Inhibition rate ([1]; 0.35 × 4 mg/kg) of 41%, an Inhibition rate ([1]; 0.7 × 4 mg/kg) of 59% and an Inhibition rate ([1]; 1.4 × 4 mg/kg) of 94%. For the same compound, the “antitumor activity (in words)” value [1, 5] was “remarkably enhanced antitumor activity compared to the drug compound, per se”, the “toxicity (weight loss)” value [1, 5] was “no toxicity (weight loss)” and the Inhibition rate ([2]; Example 12 (Table 3), 2.5 mg/kg single, calculated based on the drug compound) was 87%. The Inhibition rate ([2]; Example 12 (Table 3), 5 mg/kg single, calculated based on the drug compound) was 98% and the “antitumor activity (in words)” value [2, 6] was “(Polysaccharide derivative)-Gly-Gly-Phe-Gly-NH--A'> (Polysaccharide derivative)-Gly-Gly-Gly-Phe-NH--A'> the drug compound, per se”.

In the case of “Carboxymethyldextran Polyalcohol-Gly-Gly-Phe-Gly-NH--A' (A--NH2 =DX-8951) [Example 15] ({carboxymethyldextran polyalcohol}-GGFG-Exatecan; also: N-terminus linked to carboxymethyldextran polyalcohol, C-terminus amide-linked to drug residue A' (DX-8951))”, the Inhibition rate (SC-6 human gastric tumor; 2 mg/kg single i.v.) is reported as 71%, the “Numbers of died mice/mice used” value (SC-6 human gastric tumor; 2 mg/kg single i.v.) is reported as 0/5 and the Inhibition rate (SC-6 human gastric tumor; 8 mg/kg single i.v.) is reported as 100%. For the same compound, the “Numbers of died mice/mice used” value (SC-6 human gastric tumor; 8 mg/kg single i.v.) was 0/5, the “death due to toxicity (in words)” value (SC-6 human gastric tumor; single i.v.) was “no death due to toxicity” and the “antitumor activity (in words)” value (SC-6 human gastric tumor; [7]) was “higher antitumor activity compared to the drug compound, per se”. For the same compound, the Inhibition rate ([2]; Example 52 (table 4), 1.25 mg/kg single, calculated based on the drug compound) was 83%, the Inhibition rate ([2]; Example 52 (table 4), 2.5 mg/kg single, calculated based on the drug compound) was 95% and the Inhibition rate ([2]; Example 52 (table 4), 5 mg/kg single, calculated based on the drug compound) was 99%. The Inhibition rate ([2]; Example 52 (table 4), 10 mg/kg single, calculated based on the drug compound) was 100%, the “antitumor activity (in words)” value [2, 6] was “remarkably enhanced antitumor activity” and the “effective dose-range (in words)” value [2, 6] was “broader effective dose-range”. The Inhibition rate (Human lung cancer QG-90; 1.75 mg/kg single i.v.) was 97%, the “Numbers of died mice/mice used” value (Human lung cancer QG-90; 1.75 mg/kg single i.v.) was 0/5 and the Inhibition rate (Human lung cancer QG-90; 7 mg/kg single i.v.) was 98%. The “Numbers of died mice/mice used” value (Human lung cancer QG-90; 7 mg/kg single i.v.) was 0/5, the “antitumor activity (in words)” value (Human lung cancer QG-90; [7]) was “remarkably enhanced antitumor activity” and the “effective dose-range (in words)” value (Human lung cancer QG-90; [7]) was “broader effective dose-range”. For the same compound, the “distribution in tumor tissues” value [3] was “high distribution in tumor tissues”, the “retention of blood level” value [3] was “extremely long retention of blood level” and the “tumor selectivity against liver and small intestine” value [3] was “high tumor selectivity against liver and small intestine”.

For `CC[C@@]1(O)C(=O)OCc2c1cc1n(c2=O)Cc2c-1nc1cc(F)c(C)c3c1c2[C@@H](N)CC3` [DX-8951, (1S,9S)-1-amino-9-ethyl-5-fluoro-2,3-dihydro-9-hydroxy-4-methyl-1H,12H-benzo[de]pyrano[3',4':6,7]indolizino[1,2-b]quinoline-10,13(9H,15H)-dione, reference compound], the Inhibition rate ([2]; Example 12 (Table 3), 20 mg/kg single) is listed as 59%, the Inhibition rate ([2]; Example 12 (Table 3), 60 mg/kg single) is listed as 77% and the lactone ring equilibrium ([4]; acidic aqueous medium, approximately at pH 3) is listed as “compound whose lactone ring is closed”. For the same compound, the lactone ring equilibrium ([4]; basic aqueous medium, approximately at pH 10) was “compound whose lactone ring is opened”.
